Test results from ChEMBL document CHEMBL1124304 (J Med Chem, 1988).

How the values were obtained:
Adenosine receptor A1 = target: T1, Adenosine receptor A1 (Rattus norvegicus, UniProt P25099)
T1 sequence (P25099 whole entry): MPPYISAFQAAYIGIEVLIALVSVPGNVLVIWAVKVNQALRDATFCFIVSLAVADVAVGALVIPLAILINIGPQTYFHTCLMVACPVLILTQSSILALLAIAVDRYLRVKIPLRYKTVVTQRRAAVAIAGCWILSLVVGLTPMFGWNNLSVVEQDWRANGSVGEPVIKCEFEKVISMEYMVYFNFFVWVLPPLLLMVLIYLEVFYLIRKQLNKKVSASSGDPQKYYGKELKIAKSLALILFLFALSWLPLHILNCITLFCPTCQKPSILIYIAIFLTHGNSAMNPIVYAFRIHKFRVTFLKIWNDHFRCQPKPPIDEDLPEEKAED
Description: Binding affinity towards adenosine A1 receptor on rat whole brain membrane using [3H]N6-cyclohexyladenosine

Adenosine A2 receptor = Adenosine A2 receptor (Rattus norvegicus, UniProt P29276+P30543)
Description: Binding affinity towards adenosine A2 receptor on rat striatal membrane using [3H]NECA as radioligand

[1] = target: T2, Adenosine receptor A1 (Rattus norvegicus) (UniProt P25099); test: (§1) Reduction of heart rate (A1 response) in isolated rat heart preparation; type: functional, tissue-based
T2 sequence (whole entry): T1 sequence (P25099 whole entry)

[2] = target: T3, Adenosine A2 receptor (Rattus norvegicus) (UniProt P29276+P30543)
[3] = target: T3, Adenosine A2 receptor (Rattus norvegicus); remark: listed apart in the source
Rattus norvegicus [4] = species on record: Rattus norvegicus; test: as §1; type: functional
Rattus norvegicus [5] = species on record: Rattus norvegicus; test: Enhancement of coronary flow (A2 response) in isolated rat heart preparation; type: functional

| SMILES | Ki (Adenosine receptor A1) [nM] | Ki (Adenosine A2 receptor) [nM] | EC25 [2] [nM] | EC25 [3] [nM] | EC25 [1] [nM] | EC25 (Rattus norvegicus [4]) [nM] | EC25 (Rattus norvegicus [5]) [nM] |
| --- | --- | --- | --- | --- | --- | --- | --- |
| OC[C@H]1OC(n2cnc3c(NCC4c5ccccc5CCc5ccccc54)ncnc32)[C@H](O)[C@@H]1O (stereo partly specified) | 160 | 390 |  |  |  |  |  |
| OC[C@H]1O[C@@H](n2cnc3c(NC4CCCC4)ncnc32)[C@H](O)[C@@H]1O |  |  |  | > 100 | 3 |  |  |
| OC[C@H]1OC(n2cnc3c(NCC4c5ccccc5Oc5ccccc54)ncnc32)[C@H](O)[C@@H]1O (stereo partly specified) | 62 | 48 | 2 |  | 1200 |  |  |
| C[C@H](Cc1ccccc1)Nc1ncnc2c1ncn2[C@@H]1O[C@H](CO)[C@@H](O)[C@H]1O |  |  |  | 10 | 13 |  |  |
| CCNC(=O)[C@H]1O[C@@H](n2cnc3c(N)ncnc32)[C@H](O)[C@@H]1O [NECA] |  |  |  |  |  | 21 | 1.1 |
| Nc1nc(Nc2ccccc2)nc2c1ncn2[C@@H]1O[C@H](CO)[C@@H](O)[C@H]1O |  |  |  | 3 | 7000 |  |  |
| OC[C@H]1OC(n2cnc3c(NCCC4c5ccccc5-c5ccccc54)ncnc32)[C@H](O)[C@@H]1O (stereo partly specified) | 320 | 4300 | 400 |  | > 3000 |  |  |
| Nc1nc(Cl)nc2c1ncn2[C@@H]1O[C@H](CO)[C@@H](O)[C@H]1O |  |  |  | 13 | 170 |  |  |
| OC[C@H]1O[C@@H](n2cnc3c(NCCc4ccccc4)ncnc32)[C@H](O)[C@@H]1O |  | 160 |  | 70 | 300 |  |  |

Further lines, with some results ahead:

| Ki (Adenosine receptor A1) [nM] | Ki (Adenosine A2 receptor) [nM] | EC25 [2] [nM] | EC25 [3] [nM] | SMILES | EC25 [1] [nM] | EC25 (Rattus norvegicus [4]) [nM] | EC25 (Rattus norvegicus [5]) [nM] |
| --- | --- | --- | --- | --- | --- | --- | --- |
| 24 | 9.1 | 1.2 |  | OC[C@H]1O[C@@H](n2cnc3c(NCc4cccc5ccccc45)ncnc32)[C@H](O)[C@@H]1O | 400 |  |  |
|  |  |  | 35 | OC[C@H]1O[C@@H](n2cnc3c(NCc4ccccc4)ncnc32)[C@H](O)[C@@H]1O | 2300 |  |  |
|  |  |  | 10 | OC[C@H]1O[C@@H](n2cnc3c(NCC(c4ccccc4)c4ccccc4)ncnc32)[C@H](O)[C@@H]1O | 90 |  |  |
|  |  | 2 |  | OC[C@H]1O[C@@H](n2cnc3c(NCC4c5ccccc5-c5ccccc54)ncnc32)[C@H](O)[C@@H]1O | 100 |  |  |
| 9000 | 29000 |  |  | OC[C@H]1OC(n2cnc3c(NCc4c5ccccc5cc5ccccc45)ncnc32)[C@H](O)[C@@H]1O (stereo partly specified) |  |  |  |
| 12.3 | 230 | 30 |  | OC[C@H]1OC(n2cnc3c(NCCc4cccc5ccccc45)ncnc32)[C@H](O)[C@@H]1O (stereo partly specified) | 110 |  |  |
| 6200 | 42000 |  |  | OC[C@H]1OC(n2cnc3c(NC4c5ccccc5-c5ccccc54)ncnc32)[C@H](O)[C@@H]1O (stereo partly specified) |  |  |  |
